Data on twelve molecules can be found in patent publication US20260242419A1, “A CYCLIC PEPTIDE FOR TRAPPING INTERLEUKIN-1 BETA” (Merck Sharp & Dohme LLC, priority 2023, published 2026).

One may read the IC50 as the point on the concentration scale where inhibition reaches its midpoint.

In this experiment the target is T1, IL-1β (Homo sapiens, UniProt P01584).
T1 construct: purchased BioLegend 579404
The experiment can be described thus: IL-6 assay in MRC5 cells: inhibition of IL-1β induced IL-6 secretion (AlphaLISA). Type of experiment: cell-based. As to conditions: inhibition of IL-1β induced IL-6 secretion in MRC5 cells; read-out: MRC5 IC50. The essentials:
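Compound was pre-incubated 1 h at ambient temperature with recombinant human IL-1β at 2λ EC80 before adding human lung fibroblast MRC5 cells (3000/well) in EMEM with 0.025% BSA. After overnight culture at 37 °C, 5% CO2, secreted IL-6 in conditioned medium was measured by AlphaLISA; IC50 from 4-parameter logistic fits.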
In general terms: In Alpha technology, singlet oxygen from a donor bead excites a nearby acceptor bead.

Starred links: 1 amine or outer side, 2 acyl side, 3 side chain; linkers in the order of their positions; H or OH if unused. Non-standard residues stand in square brackets, D forms with d. Residues, ends and D or L forms follow the SMILES beside them. Phe(4-(5-CO2H-2-pyrimidyl)) = N[C@@H](Cc1ccc(-c2ncc(C(=O)O)cn2)cc1)C(=O)O; Phe(4-(4-Ac-piperazinyl)) = CC(=O)N1CCN(c2ccc(C[C@H](N)C(=O)O)cc2)CC1; Trp(4-Cl)(βS-Me) = C[C@@H](c1c[nH]c2cccc(Cl)c12)[C@H](N)C(=O)O; dPro(4R-(4-pyridylmethyl)) = O=C(O)[C@H]1C[C@@H](Cc2ccncc2)CN1; Trp(βS-Me,4-F) = C[C@@H](c1c[nH]c2cccc(F)c12)[C@H](N)C(=O)O; Bip(4'-COOH) = N[C@@H](Cc1ccc(-c2ccc(C(=O)O)cc2)cc1)C(=O)O; Ala(1-bicyclo(1.1.1)pentyl) = N[C@@H](CC12CC(C1)C2)C(=O)O; dPro(4R-Bzl(4-F)) = O=C(O)[C@H]1C[C@@H](Cc2ccc(F)cc2)CN1; dPro(3S-(4-F-Bn)) = O=C(O)[C@@H]1NCC[C@@H]1Cc1ccc(F)cc1; Phe(2-Cl,4-COOH) = N[C@@H](Cc1ccc(C(=O)O)cc1Cl)C(=O)O; Bip(4'-Cl) = N[C@@H](Cc1ccc(-c2ccc(Cl)cc2)cc1)C(=O)O; 1Nal(3S-Me) = C[C@@H](c1cccc2ccccc12)[C@H](N)C(=O)O; Ala(pyrimidin-5-yl) = N[C@@H](Cc1cncnc1)C(=O)O; Phe(4-COOH) = N[C@@H](Cc1ccc(C(=O)O)cc1)C(=O)O; Pro(cis-4-F) = O=C(O)[C@@H]1C[C@H](F)CN1; Ala(4-THP) = N[C@@H](CC1CCOCC1)C(=O)O; X6 = O=C([C@H](Cc1ccncn1)N[*:1])[*:2]; d(αMeD) = C[C@@](N)(CC(=O)O)C(=O)O; 4Pal = N[C@@H](Cc1ccncc1)C(=O)O; aThr = C[C@H](O)[C@H](N)C(=O)O; d(αMeS) = C[C@@](N)(CO)C(=O)O; Cba = N[C@@H](CC1CCC1)C(=O)O; Dab = NCC[C@H](N)C(=O)O; Aib = CC(C)(N)C(=O)O

T1 sequence (P01584 117-269): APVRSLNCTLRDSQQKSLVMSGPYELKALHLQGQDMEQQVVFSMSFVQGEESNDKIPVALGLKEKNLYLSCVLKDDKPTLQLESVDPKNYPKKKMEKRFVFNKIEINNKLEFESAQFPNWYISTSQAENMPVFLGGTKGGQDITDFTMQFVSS

Consider `C[C@@H](c1c[nH]c2cccc(F)c12)[C@@H]1NC(=O)[C@@H]2C[C@H](F)CN2C(=O)CNC(=O)[C@H](Cc2ccc(C(=O)O)cc2)NC(=O)[C@H](Cc2ccncc2)NC(=O)[C@H](Cc2ccc(-c3ccc(Cl)cc3)cc2)NC(=O)[C@H]2C[C@@H](Cc3ccncc3)CN2C(=O)CNC(=O)[C@H](CCN)NC(=O)[C@H](CCC(N)=O)NC(=O)[C@H](Cc2cncnc2)NC(=O)[C@@](C)(CC(=O)O)NC(=O)[C@H](Cc2c[nH]c3ccccc23)NC(=O)[C@H](CO)NC(=O)C(C)(C)NC1=O` [Example 344] (cyclo([Bip(4'-Cl)][4Pal][Phe(4-COOH)]G[Pro(cis-4-F)][Trp(βS-Me,4-F)][Aib]SW[d(αMeD)][Ala(pyrimidin-5-yl)]Q[Dab]G[dPro(4R-(4-pyridylmethyl))])), for which the IC50 was determined as 0.022 nM. Next, `C[C@@H](c1c[nH]c2cccc(F)c12)[C@@H]1NC(=O)[C@@H]2C[C@H](F)CN2C(=O)CNC(=O)[C@H](Cc2ccc(C(=O)O)cc2)NC(=O)[C@H](Cc2ccncc2)NC(=O)[C@H](Cc2ccc(-c3ccc(C(=O)O)cc3)cc2)NC(=O)[C@H]2C[C@@H](Cc3ccc(F)cc3)CN2C(=O)CNC(=O)[C@H](CCN)NC(=O)[C@H](CCC(N)=O)NC(=O)[C@H](Cc2ccncn2)NC(=O)C(C)(C)NC(=O)[C@H](Cc2c[nH]c3ccccc23)NC(=O)[C@H](CCC(=O)O)NC(=O)C(C)(C)NC1=O` [Example 345] (cyclo([Bip(4'-COOH)][4Pal][Phe(4-COOH)]G[Pro(cis-4-F)][Trp(βS-Me,4-F)][Aib]EW[Aib][X6]Q[Dab]G[dPro(4R-Bzl(4-F))])): 0.012 nM; `C[C@@H](c1c[nH]c2cccc(F)c12)[C@@H]1NC(=O)[C@@H]2C[C@H](F)CN2C(=O)CNC(=O)[C@H](Cc2ccc(C(=O)O)cc2)NC(=O)[C@H](Cc2ccncc2)NC(=O)[C@H](Cc2ccc(-c3ccc(C(=O)O)cc3)cc2)NC(=O)[C@H]2[C@@H](Cc3ccc(F)cc3)CCN2C(=O)CNC(=O)[C@H](CCN)NC(=O)[C@H](CCC(N)=O)NC(=O)[C@H](Cc2cncnc2)NC(=O)C(C)(C)NC(=O)[C@H](Cc2c[nH]c3ccccc23)NC(=O)[C@H](CCC(=O)O)NC(=O)C(C)(C)NC1=O` [Example 346] (cyclo([Bip(4'-COOH)][4Pal][Phe(4-COOH)]G[Pro(cis-4-F)][Trp(βS-Me,4-F)][Aib]EW[Aib][Ala(pyrimidin-5-yl)]Q[Dab]G[dPro(3S-(4-F-Bn))])): 0.01 nM; `CC(C)C[C@@H]1NC(=O)[C@@](C)(CO)NC(=O)[C@H](Cc2c[nH]c3ccccc23)NC(=O)[C@H](CO)NC(=O)C(C)(C)NC(=O)[C@H]([C@@H](C)c2c[nH]c3cccc(F)c23)NC(=O)[C@@H]2C[C@H](F)CN2C(=O)CNC(=O)[C@H](Cc2ccc(C(=O)O)cc2)NC(=O)[C@H](Cc2ccncc2)NC(=O)[C@H](Cc2ccc(-c3ccc(C(=O)O)cc3)cc2)NC(=O)[C@H]2C[C@@H](Cc3ccncc3)CN2C(=O)CNC(=O)[C@H](CCN)NC(=O)[C@H](CCC(N)=O)NC1=O` [Example 347] (cyclo([Bip(4'-COOH)][4Pal][Phe(4-COOH)]G[Pro(cis-4-F)][Trp(βS-Me,4-F)][Aib]SW[d(αMeS)]LQ[Dab]G[dPro(4R-(4-pyridylmethyl))])): 0.025 nM. Next, `C[C@@H](c1c[nH]c2cccc(F)c12)[C@@H]1NC(=O)[C@@H]2C[C@H](F)CN2C(=O)CNC(=O)[C@H](Cc2ccc(C(=O)O)cc2)NC(=O)[C@H](CC23CC(C2)C3)NC(=O)[C@H](Cc2ccc(-c3ccc(C(=O)O)cc3)cc2)NC(=O)[C@H]2C[C@@H](Cc3ccncc3)CN2C(=O)CNC(=O)[C@H](CCN)NC(=O)[C@H](CCC(N)=O)NC(=O)[C@H](CC2CCC2)NC(=O)[C@@](C)(CC(=O)O)NC(=O)[C@H](Cc2c[nH]c3ccccc23)NC(=O)[C@H](CO)NC(=O)C(C)(C)NC1=O` [Example 348] (cyclo([Bip(4'-COOH)][Ala(1-bicyclo(1.1.1)pentyl)][Phe(4-COOH)]G[Pro(cis-4-F)][Trp(βS-Me,4-F)][Aib]SW[d(αMeD)][Cba]Q[Dab]G[dPro(4R-(4-pyridylmethyl))])): 0.018 nM; `CC(C)C[C@@H]1NC(=O)[C@@](C)(CC(=O)O)NC(=O)[C@H](Cc2c[nH]c3ccccc23)NC(=O)[C@H](CO)NC(=O)C(C)(C)NC(=O)[C@H]([C@@H](C)c2c[nH]c3cccc(F)c23)NC(=O)[C@@H]2C[C@H](F)CN2C(=O)CNC(=O)[C@H](Cc2ccc(C(=O)O)cc2)NC(=O)[C@H](CC23CC(C2)C3)NC(=O)[C@H](Cc2ccc(-c3ccc(C(=O)O)cc3)cc2)NC(=O)[C@H]2C[C@@H](Cc3ccncc3)CN2C(=O)CNC(=O)[C@H](CCN)NC(=O)[C@H](CCC(N)=O)NC1=O` [Example 349] (cyclo([Bip(4'-COOH)][Ala(1-bicyclo(1.1.1)pentyl)][Phe(4-COOH)]G[Pro(cis-4-F)][Trp(βS-Me,4-F)][Aib]SW[d(αMeD)]LQ[Dab]G[dPro(4R-(4-pyridylmethyl))])): 0.017 nM. As for `CC(=O)N1CCN(c2ccc(C[C@@H]3NC(=O)[C@H]4C[C@@H](Cc5ccncc5)CN4C(=O)CNC(=O)[C@H](CCN)NC(=O)[C@H](CCC(N)=O)NC(=O)[C@H](Cc4cncnc4)NC(=O)[C@@](C)(CO)NC(=O)[C@H](Cc4c[nH]c5ccccc45)NC(=O)[C@H](CO)NC(=O)C(C)(C)NC(=O)[C@H]([C@@H](C)c4c[nH]c5cccc(F)c45)NC(=O)[C@@H]4C[C@H](F)CN4C(=O)CNC(=O)[C@H](Cc4ccc(C(=O)O)cc4)NC(=O)[C@H](Cc4ccncc4)NC3=O)cc2)CC1` [Example 350] (cyclo([Phe(4-(4-Ac-piperazinyl))][4Pal][Phe(4-COOH)]G[Pro(cis-4-F)][Trp(βS-Me,4-F)][Aib]SW[d(αMeS)][Ala(pyrimidin-5-yl)]Q[Dab]G[dPro(4R-(4-pyridylmethyl))])), the 50% inhibitory concentration (IC50) amounted to 0.02 nM. As to `C[C@@H](c1c[nH]c2cccc(F)c12)[C@@H]1NC(=O)[C@@H]2C[C@H](F)CN2C(=O)CNC(=O)[C@H](Cc2ccc(C(=O)O)cc2)NC(=O)[C@H](Cc2ccncc2)NC(=O)[C@H](Cc2ccc(-c3ncc(C(=O)O)cn3)cc2)NC(=O)[C@H]2C[C@@H](Cc3ccncc3)CN2C(=O)CNC(=O)[C@H](CCN)NC(=O)[C@H](CCC(N)=O)NC(=O)[C@H](CC2CCOCC2)NC(=O)[C@@](C)(CC(=O)O)NC(=O)[C@H](Cc2c[nH]c3ccccc23)NC(=O)[C@H](CO)NC(=O)C(C)(C)NC1=O` [Example 351] (cyclo([Phe(4-(5-CO2H-2-pyrimidyl))][4Pal][Phe(4-COOH)]G[Pro(cis-4-F)][Trp(βS-Me,4-F)][Aib]SW[d(αMeD)][Ala(4-THP)]Q[Dab]G[dPro(4R-(4-pyridylmethyl))])), the IC50 is 0.016 nM. In the case of `C[C@H](O)[C@@H]1NC(=O)C(C)(C)NC(=O)[C@H]([C@@H](C)c2c[nH]c3cccc(F)c23)NC(=O)[C@@H]2C[C@H](F)CN2C(=O)CNC(=O)[C@H](Cc2ccc(C(=O)O)cc2)NC(=O)[C@H](Cc2ccncc2)NC(=O)[C@H](Cc2ccc(-c3ccc(C(=O)O)cc3)cc2)NC(=O)[C@H]2C[C@@H](Cc3ccncc3)CN2C(=O)CNC(=O)[C@H](CCN)NC(=O)[C@H](CCC(N)=O)NC(=O)[C@H]([C@H](C)O)NC(=O)[C@@](C)(CO)NC(=O)[C@H](Cc2c[nH]c3ccccc23)NC1=O` [Example 352] (cyclo([Bip(4'-COOH)][4Pal][Phe(4-COOH)]G[Pro(cis-4-F)][Trp(βS-Me,4-F)][Aib][aThr]W[d(αMeS)][aThr]Q[Dab]G[dPro(4R-(4-pyridylmethyl))])) it was 0.023 nM; in that of `C[C@H](O)[C@@H]1NC(=O)C(C)(C)NC(=O)[C@H]([C@@H](C)c2c[nH]c3cccc(F)c23)NC(=O)[C@@H]2C[C@H](F)CN2C(=O)CNC(=O)[C@H](Cc2ccc(C(=O)O)cc2)NC(=O)[C@H](Cc2ccncc2)NC(=O)[C@H](Cc2ccc(-c3ccc(C(=O)O)cc3)cc2)NC(=O)[C@H]2C[C@@H](Cc3ccncc3)CN2C(=O)CNC(=O)[C@H](CCN)NC(=O)[C@H](CCC(N)=O)NC(=O)[C@H](CC2CCOCC2)NC(=O)[C@@](C)(CC(=O)O)NC(=O)[C@H](Cc2c[nH]c3ccccc23)NC1=O` [Example 353] (cyclo([Bip(4'-COOH)][4Pal][Phe(4-COOH)]G[Pro(cis-4-F)][Trp(βS-Me,4-F)][Aib][aThr]W[d(αMeD)][Ala(4-THP)]Q[Dab]G[dPro(4R-(4-pyridylmethyl))])), 0.017 nM.

As to `C[C@H](O)[C@@H]1NC(=O)[C@@](C)(CC(=O)O)NC(=O)[C@H](Cc2c[nH]c3ccccc23)NC(=O)[C@H](CO)NC(=O)C(C)(C)NC(=O)[C@H]([C@@H](C)c2cccc3ccccc23)NC(=O)[C@@H]2C[C@H](F)CN2C(=O)CNC(=O)[C@H](Cc2ccc(C(=O)O)cc2Cl)NC(=O)[C@H](Cc2ccncc2)NC(=O)[C@H](Cc2ccc(-c3ccc(C(=O)O)cc3)cc2)NC(=O)[C@H]2C[C@@H](Cc3ccncc3)CN2C(=O)CNC(=O)[C@H](CCN)NC(=O)[C@H](CCC(N)=O)NC1=O` [Example 354] (cyclo([Bip(4'-COOH)][4Pal][Phe(2-Cl,4-COOH)]G[Pro(cis-4-F)][1Nal(3S-Me)][Aib]SW[d(αMeD)][aThr]Q[Dab]G[dPro(4R-(4-pyridylmethyl))])), the IC50 was found to be 0.014 nM. In the case of `C[C@H](O)[C@@H]1NC(=O)[C@@](C)(CC(=O)O)NC(=O)[C@H](Cc2c[nH]c3ccccc23)NC(=O)[C@H](CO)NC(=O)C(C)(C)NC(=O)[C@H]([C@@H](C)c2c[nH]c3cccc(Cl)c23)NC(=O)[C@@H]2C[C@H](F)CN2C(=O)CNC(=O)[C@H](Cc2ccc(C(=O)O)cc2Cl)NC(=O)[C@H](Cc2ccncc2)NC(=O)[C@H](Cc2ccc(-c3ccc(C(=O)O)cc3)cc2)NC(=O)[C@H]2C[C@@H](Cc3ccncc3)CN2C(=O)CNC(=O)[C@H](CCN)NC(=O)[C@H](CCC(N)=O)NC1=O` [Example 355] (cyclo([Bip(4'-COOH)][4Pal][Phe(2-Cl,4-COOH)]G[Pro(cis-4-F)][Trp(4-Cl)(βS-Me)][Aib]SW[d(αMeD)][aThr]Q[Dab]G[dPro(4R-(4-pyridylmethyl))])) it was 0.013 nM.
